Data: US20090023784A1, “USE OF DEFERIPRONE AND METHODS TO TREAT AND/OR PREVENT FRIEDREICH ATAXIA RESULTING FROM INTRACELLULAR MISHANDLING OF IRON” (priority 2006, published 2009)

System: iron-loaded rats
Assay: Tissue iron content (ICP-MS) in iron-loaded rats treated with deferiprone
Type: in vivo
Settings: 100 mg/kg daily oral gavage
Method: As part of a larger study comparing iron chelators, we conducted histologic examination and electron microscopy (EM) of tissues following iron loading (100 mg/kg iron dose intraperitoneally twice weekly for four weeks) in rats (200-250 g) and treatment with deferiprone. Two control groups of rats were studied, one with no iron loading (“Naïve”) and the other with iron loading but no iron chelation.
Deferiprone was administered five times weekly (daily Monday to Friday). The animals received 89 doses in 127 days of 100 mg/kg daily, by oral gavage.
Iron content in micrograms per gram dry tissue±SD as determined by ICP-MS

Cc1c(O)c(=O)ccn1C [Deferiprone, 3-hydroxy-1,2-dimethylpyridin-4-one]
Iron content, Skeletal Muscle (89 doses in 127 days, ±SD, Fe-control 205 ± 109, Naive 50 ± 17): 146 ± 49 micrograms per gram dry tissue
Iron content, Thyroid (89 doses in 127 days, ±SD, Fe-control 583 ± 275, Naive 95 ± 13): 425 ± 228 micrograms per gram dry tissue
Iron content, Kidney (89 doses in 127 days, ±SD, Fe-control 801 ± 39, Naive 305 ± 80): 642 ± 104 micrograms per gram dry tissue
Iron content, Heart (89 doses in 127 days, ±SD, Fe-control 1,088 ± 36, Naive 276 ± 25): 586 ± 143 micrograms per gram dry tissue
Iron content, Lung (89 doses in 127 days, ±SD, Fe-control 1,234 ± 227, Naive 376 ± 45): 1065 ± 101 micrograms per gram dry tissue
Iron content, Liver (89 doses in 127 days, ±SD, Fe-control 11,534 ± 554, Naive 376 ± 127): 7,780 ± 1,637 micrograms per gram dry tissue
effect on iron levels in organs (iron-loaded rats): decreased the iron levels in the liver and heart and most other organs
